Several values for one entry are separate records, joined by “and”; a condition that tells them apart may be missing. Equal values may be shown once. Read-outs that look alike come from different tables or passages of the source.
What was measured:
SUDHL5 [1] = test: Induction of caspase-3/7 activity in SUDHL5 cells (Assay 4); type: cell-based; conditions: SUDHL5, 3 hours treatment, Caspase-Glo 3/7, median, read-out: Caspase SUDHL5 [M] (median)
Procedure: (§1) Induction of Caspase-3/7 Activity Upon Treatment of Cells with Selected Compounds
(§2) The BH3-domain of MCL-1 sequesters pro-apoptotic proteins, thereby inhibiting apoptosis. In contrast, MCL-1 inhibitors are expected to antagonize this effect leading to an increase in apoptosis, which can be determined by measuring the activity of caspase-3/7.
(§3) The activity of caspase-3/7 was determined in DLBCL (Diffuse large B-cell lymphoma) cell lines (SUDHL5 and SUDHL10) upon treatment with different compounds, using the Caspase-Glo® 3/7 reagent from Promega (G8092).
(§4) As a control, medium without cells was also added to the plate. Cells were incubated in a humidified incubator at 37° C. overnight.
(§5) Rim wells were excluded. The cells were incubated for 3 hours in a humidified incubator at 37° C. After this incubation, 30 μl of Caspase-Glo® 3/7 reagent (Promega G8092) was added to each well using the Multidrop Combi Reagent Dispenser, followed by 1 hour incubation at 37° C. Finally, luminescence was read at 0.1 ms, with a gain of 3000 using the PHERAstar FS microplate reader (BMG Labtech).
(§6) For the evaluation of the results, the background measured with “medium-only” was subtracted from all other values. Then, the values were normalized to DMSO-only treated cells (every value was divided by the mean of the DMSO control).

SUDHL10 [2] = test: Induction of caspase-3/7 activity in SUDHL10 cells (Assay 4); type: cell-based; conditions: SUDHL10, 3 hours treatment, Caspase-Glo 3/7, median, read-out: Caspase SUDHL10 [M] (median)
Procedure: as §1, §2, §3, §4, §5, §6

SUDHL5 [3] = test: Induction of cytotoxicity in SUDHL5 cells, CellTiter-Glo (Assay 6); type: cell-based; conditions: Homo sapiens, SU-DHL-5, 5 h, SUDHL5, 5 hours incubation, median, read-out: Cytotox SUDHL5 [M] (median)
Procedure: (§7) Induction of Cytotoxicity Upon Treatment of Cells with Selected Compounds
(§8) In principle, compounds that induce apoptosis will concomitantly induce cell cytotoxicity. Therefore, cytotoxicity assays were run in parallel in SUDHL5 and SUDHL10 cells.
(§9) As a control, medium without cells was also added to the plate. Cells were incubated in a humidified incubator at 37° C. overnight. […] Rim wells were excluded. The cells were incubated for 5 hours in a humidified incubator at 37° C. After this incubation, 30 μl of CellTiter-Glo® Luminescent Cell Viability reagent (Promega, G7573) was added to each well using the Multidrop Combi Reagent Dispenser, followed by 15 minutes incubation on a shaker at room temperature. Finally, luminescence was read at 0.1 ms, with a gain of 3000 using the PHERAstar FS microplate reader (BMG Labtech).

SUDHL10 [4] = test: Induction of cytotoxicity in SUDHL10 cells, CellTiter-Glo (Assay 6); type: cell-based; conditions: SUDHL10, 5 hours incubation, median, read-out: Cytotox SUDHL10 [M] (median)
Procedure: as §7, §8, §9

SUDHL5 [5] = test: Anti-proliferative effect in SUDHL5 cells, CellTiter-Glo (Assay 7); type: cell-based; conditions: SUDHL5, 72 hours incubation, CellTiter-Glo, median, read-out: Antiproli SUDHL5 [M] (median)
Procedure: (§10) Assessment of the Anti-Proliferative Effect of Compounds in Different Cell Lines
(§11) The impact of compounds on the proliferation of different cell lines was assessed using the CellTiter-Glo® Luminescent Cell Viability reagent from Promega (G7573).
(§12) In parallel, cells were plated in a reference (day 0) plate for time zero determination. Cells were incubated in a humidified incubator at 37° C. overnight.
(§13) Rim wells were excluded. The cells were incubated for 72 hours in a humidified incubator at 37° C. The day 0 plate was measured by adding 30 μL/well of CTG solution (CellTiter-Glo® Luminescent Cell Viability reagent, Promega G7573) to time zero wells in the reference plate followed by a 10 minutes incubation and luminescence reading at 0.1 ms. using the PHERAstar FS microplate reader (BMG Labtech).
(§14) After 72 hours incubation, the treated plates were measured in the same way as the day 0 plate mentioned above. The Bella DRC Master Sheet was used to calculate IC50s, with CI=day 0 values and C0=DMSO control values.

MV-4-11 = test: Anti-proliferative effect in MV-4-11 cells, CellTiter-Glo (Assay 7); type: cell-based; conditions: MV-4-11, 72 hours incubation, CellTiter-Glo, several values per example, read-out: Antiproli MV-4-11
Procedure: as §10, §11, §12, §13, §14

A2780 = test: Anti-proliferative effect in A2780 cells, CellTiter-Glo (Assay 7); type: cell-based; conditions: A2780, 72 hours incubation, CellTiter-Glo, several values per example, read-out: Antiproli A2780
Procedure: as §10, §11, §12, §13, §14

MCL-1 = MCL-1 (Homo sapiens, UniProt Q07820, K194A/K197A/R201A); test: Protein-protein interaction assay MCL-1/Noxa BH3 peptide, TR-FRET (MCL-1 assay, Assay 1); type: binding; conditions: MBP-MCL-1 / Noxa BH3 peptide
Procedure: The dose-dependent inhibition by the compounds described in this invention of the interaction between MCL-1 and the BH3 domain of Noxa (both human) was determined using a steady state binding competition assay with time-resolved fluorescence energy transfer (TR-FRET) readout. For that purpose MCL-1 (amino acids 173-321, N-terminal fused to Maltose Binding Protein (MBP), SEQ ID 1) and a synthetic Noxa BH3-derived peptide of sequence Biotin-PEG2-PEG2-PAELEVE-Nva-[…]-amide (SEQ ID 2) served as protein receptor and tracer ligand respectively. The MBP-MCL-1 was purchased from Beryllium (Bedford, Mass., USA). The expression and purification of this protein construct has been described elsewhere (DOI:10.1371/journal.pone.0125010). The Noxa BH3-derived peptide can be obtained from e.g. Biosyntan (Berlin, Germany).
For that, 100-fold concentrated DMSO solutions were prepared by serial dilutions (1:3.4) of a 2 mM stock solution in a clear, 384-well microtiter plate (Greiner Bio-One, Frickenhausen, Germany). From there, 50 nl were transferred in a dark test plate (Greiner Bio-One, Frickenhausen, Germany). The assay was initiated by addition of 2 μl of a 2,5-fold concentrated MBP-MCL-1 solution (usually for a 1 nM end concentration in 5 μl reaction volume) in aqueous assay buffer [50 mM Tris/HCl pH 7, 100 mM sodium chloride (NaCl), 50 mM potassium fluoride (KF), 0.005% Tween-20, 2 mM DTT, 0.1% bovine gamma globulin (BGG)] to the compounds in the assay plate. This was followed by a 10-minute incubation step at 22° C. for pre-equilibration of the putative complex between MBP-MCL-1 and the compounds.
The mixture was incubated in the dark for one hour at 22° C. and then overnight at 4° C. The formation of MCL-1/Noxa complexes was determined by measuring the resonance energy transfer of the anti-MBP-Eu-cryptate antibody to the streptavidin-XL665 present in the reaction.
The resulting data (ratio) were normalized, taking 0% inhibition as the mean value of control measurements (usually 32 data points) where all reagents were included. In this case 50 nl DMSO were used instead of compounds. […] IC50 values were determined by regression analysis based on a 4 parameter equation (minimum, maximum, IC50, Hill; Y=Max+(Min−Max)/(1+(X/IC50)^Hill) using the Screener Software (Genedata).

Sequence of MCL-1 (Q07820 173-321 K194A/K197A/R201A, looked up): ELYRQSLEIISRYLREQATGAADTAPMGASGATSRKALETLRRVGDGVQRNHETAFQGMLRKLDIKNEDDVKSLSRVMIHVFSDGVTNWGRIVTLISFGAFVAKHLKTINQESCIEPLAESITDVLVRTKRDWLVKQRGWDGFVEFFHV

| IC50 (MCL-1; MCL-1 Assay [M] (median)) | Structure (SMILES) | EC50 (SUDHL5 [1]; Homo sapiens, SU-DHL-5, 3 h) | EC50 (SUDHL10 [2]; Homo sapiens, SU-DHL10, 3 h) | IC50 (SUDHL5 [3]) | IC50 (SUDHL10 [4]; Homo sapiens, SU-DHL10, 5 h) | IC50 (SUDHL5 [5]; Homo sapiens, SU-DHL-5, 72 h) | IC50 (MV-4-11; Homo sapiens, MV4-11, 72 h) | IC50 (MV-4-11) | IC50 (A2780) | IC50 (A2780; Homo sapiens, A2780, 72 h) | IC50 (MCL-1; median, read-out: MCL-1 Assay [M] (median)) | EC50 (SUDHL5 [1]) | EC50 (SUDHL10 [2]) | IC50 (SUDHL10 [4]) | IC50 (SUDHL5 [5]) |
| --- | --- | --- | --- | --- | --- | --- | --- | --- | --- | --- | --- | --- | --- | --- | --- |
|  | Cc1c2c(nn1C)CNCc1ccccc1Cn1c(C(=O)O)c(CCCOc3cccc4ccccc34)c3cccc-2c31 (racemic) [Example 11, (rac)-4,5-Dimethyl-17-[3-(naphthalen-1-yloxy)propyl]-7,8,9,14-tetrahydro-5H-indolo[1,7-bc]pyrazolo[4,3-e][2,8]benzodiazacycloundecine-16-carboxylic Acid] | 5.6e-06 M | 1.6e-05 M | 5.6e-06 M | 1.5e-05 M | 7.2e-06 M | 7.59 µM | 7.42 µM | 12.2 µM | 11.8 µM |  |  |  |  |  |
| 1.8e-07 M | COc1cc(CNC(=O)N2Cc3ccccc3Cn3c(C(=O)O)c(CCCOc4cccc5ccccc45)c4cccc(c43)-c3c(nn(C)c3C)C2)cc(OC)c1OC (racemic) [Example 20, (rac)-4,5-Dimethyl-17-[3-(naphthalen-1-yloxy)propyl]-8-[(3,4,5-trimethoxybenzyl)carbamoyl]-7,8,9,14-tetrahydro-5H-indolo[1,7-bc]pyrazolo[4,3-e][2,8]benzodiazacycloundecine-16-carboxylic Acid] | > 3.3e-05 M | > 3.3e-05 M | > 3.3e-05 M | > 3.3e-05 M | 1.2e-05 M | 10.8 µM |  |  | 13.7 µM |  |  |  |  |  |
| 3.5e-08 M | Cc1c2c(nn1C)CN(C(=O)CC1CCOCC1)Cc1ccccc1Cn1c(C(=O)O)c(CCCOc3cccc4ccccc34)c3cccc-2c31 (racemic) [Example 21, (rac)-4,5-Dimethyl-17-[3-(naphthalen-1-yloxy)propyl]-8-(tetrahydro-2H-pyran-4-ylacetyl)-7,8,9,14-tetrahydro-5H-indolo[1,7-bc]pyrazolo[4,3-e][2,8]benzodiazacycloundecine-16-carboxylic Acid] | 2e-05 M | > 3.3e-05 M | 1.3e-05 M | > 3.3e-05 M | 1.1e-05 M | 8.33 µM |  |  | 11.9 µM |  |  |  |  |  |
| 5.3e-08 M | Cc1c2c(nn1C)CN(C(=O)NC1CCOCC1)Cc1ccccc1Cn1c(C(=O)O)c(CCCOc3cccc4ccccc34)c3cccc-2c31 (racemic) [Example 24, (rac)-4,5-Dimethyl-17-[3-(naphthalen-1-yloxy)propyl]-8-(tetrahydro-2H-pyran-4-ylcarbamoyl)-7,8,9,14-tetrahydro-5H-indolo[1,7-bc]pyrazolo[4,3-e][2,8]benzodiazacycloundecine-16-carboxylic Acid] | > 3.3e-05 M | > 3.3e-05 M | > 3.3e-05 M | > 3.3e-05 M | > 3.3e-05 M | > 33 µM |  |  | > 33 µM |  |  |  |  |  |
|  | Cc1c2c(nn1C)COCc1ccccc1Cn1c(C(=O)O)c(CCCOc3cccc4ccccc34)c3ccc(F)c-2c31 (racemic) [Example 67, (rac)-15-Fluoro-13,14-dimethyl-1-(3-(naphthalen-1-yloxy)propyl)-4,9,11,13-tetrahydrobenzo[3,4]pyrazolo[4′,3′:9,10][1,6]oxaazacycloundecino[8,7,6-hi]indole-2-carboxylic Acid] | 2.2e-06 M | 5.9e-06 M | 1.8e-06 M | 4.9e-06 M | 2.4e-06 M | 3.08 µM |  |  | 20.5 µM |  |  |  |  |  |
|  | CCc1c2c(nn1C)COCc1ccccc1Cn1c(C(=O)O)c(CCCOc3cccc4ccccc34)c3ccc(F)c-2c31 (racemic) [Example 70, (rac)-14-Ethyl-15-fluoro-13-methyl-1-(3-(naphthalen-1-yloxy)propyl)-4,9,11,13-tetrahydrobenzo[3,4]pyrazolo[4′,3′:9,10][1]oxa[6]azacycloundecino[8,7,6-hi]indole-2-carboxylic Acid] |  |  |  |  |  |  | 2.41 µM and 2.27 µM | 22.8 µM and 22.5 µM |  | 2.1e-09 M | 1.6e-06 M | 8.6e-06 M | 6.1e-06 M | 2.2e-06 M |
|  | Cc1c2c(nn1C)COCc1ncccc1Cn1c(C(=O)O)c(CCCOc3cccc4ccccc34)c3cccc-2c31 [Example 07] |  |  |  |  |  |  | 5.15 µM and 5.5 µM | 29.6 µM and > 33 µM |  |  |  |  |  |  |

| Structure (SMILES) | IC50 (MCL-1; MCL-1 Assay [M] (median)) | EC50 (SUDHL5 [1]; Homo sapiens, SU-DHL-5, 3 h) | EC50 (SUDHL10 [2]; Homo sapiens, SU-DHL10, 3 h) | IC50 (SUDHL5 [3]) | IC50 (SUDHL10 [4]; Homo sapiens, SU-DHL10, 5 h) | IC50 (SUDHL5 [5]; Homo sapiens, SU-DHL-5, 72 h) | IC50 (MV-4-11; Homo sapiens, MV4-11, 72 h) | IC50 (MV-4-11) | IC50 (A2780) | IC50 (A2780; Homo sapiens, A2780, 72 h) | IC50 (MCL-1; median, read-out: MCL-1 Assay [M] (median)) | EC50 (SUDHL5 [1]) | EC50 (SUDHL10 [2]) | IC50 (SUDHL10 [4]) | IC50 (SUDHL5 [5]) |
| --- | --- | --- | --- | --- | --- | --- | --- | --- | --- | --- | --- | --- | --- | --- | --- |
| Cc1c2c(nn1C)CN(C)Cc1ccccc1Cn1c(C(=O)O)c(CCCOc3cccc4ccccc34)c3cccc-2c31 (racemic) [Example 14, (rac)-4,5,8-Trimethyl-17-[3-(naphthalen-1-yloxy)propyl]-7,8,9,14-tetrahydro-5H-indolo[1,7-bc]pyrazolo[4,3-e][2,8]benzodiazacycloundecine-16-carboxylic Acid] | 5.2e-09 M | 2.7e-06 M | 7.6e-06 M | 3e-06 M | 7e-06 M | 3.4e-06 M | 6.41 µM |  |  | 17.5 µM |  |  |  |  |  |

Source: patent US20210253598A1, “ARYL ANNULATED MACROCYCLIC INDOLE DERIVATIVES” (priority 2017, published 2021)
